Measurements published in patent publication US20070225213A1, “Nucleic acid carriers for delivery of therapeutic agents” (priority 2006, published 2007).

Tests used:
BHK21 = assay: Cell uptake by MTN fluorescence EX620/EM680 (Examples 10 and 13, EX051605); assay type: cell-based, hamster; details: 10% w/w loading in DNA
Method: Materials: HSGDNA, MTN, ODNAS1116 (phosphorothioated, single stranded DNA, and Beta-cyclodextrin polymer (BCD-SBE, KKBIOMED Inc.) were previously prepared in water at 10 mg/ml, 1 mg/ml, 0.95 mg/ml, and 10 mg/ml respectively.
Procedure: For NAC-MTN, combined 37 ul HSGDNA (herring genomic DNA, Promega Inc.), 1426 ul HBSS( Hank's buffered saline, Sigma-Aldrich), with 37 ul of MTN, followed by 1500 ul 2× DMEM media to give 3 ml final and 24 uM (24 micro-molar) MTN and 10% w/w drug loading of MTN. For NAC-MTN (AR1505) combined 62 ul of HSDNA (deg. herring sperm DNA, Sigma) with 2377 ul HBSS, 61.7 ul MTN, 2500 ul 2× media to give 5 ml final and 24 uM MTN and 10% w/w drug loading of MTN to HSDNA. […]
Plate#1 Media was aspirated and cells treated with 100 ul of either NAC-MTN, CD-MTN, or MTN at 24 uM MTN final or 12.3 ug/ml MTN in all samples. Samples containing MTN were incubated 4 hours, removed, and fluorescence taken at EX620/EM680. […]
Samples were incubated 4 hours, removed, and MTN fluorescence taken at EX620/EM680. […] Average MTN fluorescence was averaged from 6 wells. For each cell type, MTN fluorescence was highest in MTN treated cells, followed by CD-MTN, and lowest in NAC-MTN. […]
PLATE#2: Dispensed 50 ul from source plate into plate #2 to give 150 ul final vol 4.1 ug/ml, 8 uMfinal per well, pre-read fluorescence w samples (bkgd) incubated 5 hr, removed, replaced w/ media, read fluor. […]

[1] = intravenous administration; cited from earlier work

SMILES: O=C1c2c(O)ccc(O)c2C(=O)c2c(NCCNCCO)ccc(NCCNCCO)c21 [MTN, mitoxantrone]
- % reduction in fluorescence relative to MTN alone (MTN = 0%) (BHK21; Plate#1, 24 uM MTN, 4 hours): 0%
- % reduction in fluorescence relative to MTN alone (MTN = 0%) (BHK21; Plate#2, 8 uM MTN): 0%
- elimination half life [1]: 12 days
